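Growth conditions: 96-well plates. Treatment: test compound, 48 hours, 5 concentrations. Analysis: linear interpolation between bracketing concentrations; unreached endpoints set to highest concentration. TGI: concentration producing complete growth inhibition.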
Tests used:
Test in all cases: NCI tumour cell line growth inhibition, 48 h
PC-3 prostate = system: PC-3 prostate
SF-539 CNS = system: SF-539 CNS
HCT-15 colon = system: HCT-15 colon
A549 NSCLC = system: A549 NSCLC
SK-OV-3 ovarian = system: SK-OV-3 ovarian
M14 melanoma = system: M14 melanoma
A498 renal = system: A498 renal
NCI-H460 lung = system: NCI-H460 lung
SNB-75 CNS = system: SNB-75 CNS
ACHN renal = system: ACHN renal
MDA-N = system: MDA-N
MDA-MB-435 = system: MDA-MB-435
T-47D breast = system: T-47D breast
NCI-H23 lung = system: NCI-H23 lung
SK-MEL-5 melanoma = system: SK-MEL-5 melanoma
CAKI-1 renal = system: CAKI-1 renal
OVCAR-3 ovarian = system: OVCAR-3 ovarian
SNB-19 CNS = system: SNB-19 CNS
OVCAR-5 ovarian = system: OVCAR-5 ovarian
SK-MEL-28 melanoma = system: SK-MEL-28 melanoma
786-0 renal = system: 786-0 renal
MDA-MB-231 breast = system: MDA-MB-231 breast
MALME-3M melanoma = system: MALME-3M melanoma
HT29 colon = system: HT29 colon
NCI-H226 lung = system: NCI-H226 lung
OVCAR-8 ovarian = system: OVCAR-8 ovarian
TK-10 renal = system: TK-10 renal
LOX IMVI melanoma = system: LOX IMVI melanoma
BT-549 breast = system: BT-549 breast
RXF 393 renal = system: RXF 393 renal
COLO 205 colon = system: COLO 205 colon
DU-145 prostate = system: DU-145 prostate
CCRF-CEM leukemia = system: CCRF-CEM leukemia
SF-295 CNS = system: SF-295 CNS
SF-268 CNS = system: SF-268 CNS
HOP-62 NSCLC = system: HOP-62 NSCLC
MCF7 breast = system: MCF7 breast
UACC-257 melanoma = system: UACC-257 melanoma
EKVX NSCLC = system: EKVX NSCLC
HS 578T breast = system: HS 578T breast
HOP-92 NSCLC = system: HOP-92 NSCLC
UACC-62 melanoma = system: UACC-62 melanoma
HCT-116 colon = system: HCT-116 colon
IGROV1 ovarian = system: IGROV1 ovarian
HL-60(TB) leukemia = system: HL-60(TB) leukemia
RPMI-8226 leukemia = system: RPMI-8226 leukemia
SW-620 colon = system: SW-620 colon
KM12 colon = system: KM12 colon
NCI/ADR-RES ovarian = system: NCI/ADR-RES ovarian
K-562 leukemia = system: K-562 leukemia
SR leukemia = system: SR leukemia
OVCAR-4 ovarian = system: OVCAR-4 ovarian
SN12C renal = system: SN12C renal
HCC-2998 colon = system: HCC-2998 colon
U251 CNS = system: U251 CNS
MOLT-4 leukemia = system: MOLT-4 leukemia
SK-MEL-2 melanoma = system: SK-MEL-2 melanoma
NCI-H522 lung = system: NCI-H522 lung
UO-31 renal = system: UO-31 renal

SMILES: CCOC(=O)C#Cc1ccc(C#CC(=O)OCC)cc1
- TGI (PC-3 prostate): > 28.4 µM
- TGI (SF-539 CNS): > 47.5 µM
- TGI (HCT-15 colon): > 20.2 µM
- TGI (A549 NSCLC): > 37.5 µM
- TGI (SK-OV-3 ovarian): 84.2 µM
- TGI (M14 melanoma): > 20.7 µM
- TGI (A498 renal): > 51.5 µM
- TGI (NCI-H460 lung): > 46.8 µM
- TGI (SNB-75 CNS): 0.609 µM
- TGI (ACHN renal): > 21.3 µM
- TGI (MDA-N): 4.87 µM
- TGI (MDA-MB-435): 3.86 µM
- TGI (T-47D breast): > 100 µM
- TGI (NCI-H23 lung): > 30 µM
- TGI (SK-MEL-5 melanoma): > 27.4 µM
- TGI (CAKI-1 renal): > 20.2 µM
- TGI (OVCAR-3 ovarian): > 20.5 µM
- TGI (SNB-19 CNS): > 38.3 µM
- TGI (OVCAR-5 ovarian): > 21.8 µM
- TGI (SK-MEL-28 melanoma): > 20.9 µM
- TGI (786-0 renal): > 27.9 µM
- TGI (MDA-MB-231 breast): > 22.7 µM
- TGI (MALME-3M melanoma): 21.3 µM
- TGI (HT29 colon): 5.27 µM
- TGI (NCI-H226 lung): > 23.7 µM
- TGI (OVCAR-8 ovarian): > 23.2 µM
- TGI (TK-10 renal): 17.8 µM
- TGI (LOX IMVI melanoma): > 22.1 µM
- TGI (BT-549 breast): > 21.7 µM
- TGI (RXF 393 renal): 16.6 µM
- TGI (COLO 205 colon): 16.5 µM
- TGI (DU-145 prostate): > 28 µM
- TGI (CCRF-CEM leukemia): > 20.8 µM
- TGI (SF-295 CNS): > 32.1 µM
- TGI (SF-268 CNS): > 22.4 µM
- TGI (HOP-62 NSCLC): > 29.3 µM
- TGI (MCF7 breast): 10.6 µM
- TGI (UACC-257 melanoma): > 56.4 µM
- TGI (EKVX NSCLC): > 24.7 µM
- TGI (HS 578T breast): 29 µM
- TGI (HOP-92 NSCLC): > 31.7 µM
- TGI (UACC-62 melanoma): > 23.4 µM
- TGI (HCT-116 colon): 11.2 µM
- TGI (IGROV1 ovarian): > 100 µM
- TGI (HL-60(TB) leukemia): 6.34 µM
- TGI (RPMI-8226 leukemia): > 25.3 µM
- TGI (SW-620 colon): > 27.4 µM
- TGI (KM12 colon): > 21.2 µM
- TGI (NCI/ADR-RES ovarian): 15.3 µM

SMILES: Cc1ccc(-c2c(C#N)c(S)n(NS(=O)(=O)c3ccccc3)c(=O)c2C#N)cc1
- TGI (PC-3 prostate): > 100 µM
- TGI (SF-539 CNS): 58.3 µM
- TGI (HCT-15 colon): 50.5 µM
- TGI (A549 NSCLC): > 100 µM
- TGI (SK-OV-3 ovarian): > 100 µM
- TGI (M14 melanoma): > 100 µM
- TGI (K-562 leukemia): > 100 µM
- TGI (A498 renal): > 100 µM
- TGI (NCI-H460 lung): 31.3 µM
- TGI (SR leukemia): 58.1 µM
- TGI (SNB-75 CNS): 97.2 µM
- TGI (OVCAR-4 ovarian): > 100 µM
- TGI (ACHN renal): 82 µM
- TGI (MDA-N): > 100 µM
- TGI (MDA-MB-435): 78.9 µM
- TGI (SN12C renal): > 100 µM
- TGI (NCI-H23 lung): > 100 µM
- TGI (SK-MEL-5 melanoma): 69.4 µM
- TGI (HCC-2998 colon): > 100 µM
- TGI (CAKI-1 renal): 92.9 µM
- TGI (OVCAR-3 ovarian): > 100 µM
- TGI (SNB-19 CNS): > 100 µM
- TGI (OVCAR-5 ovarian): > 100 µM
- TGI (SK-MEL-28 melanoma): > 100 µM
- TGI (786-0 renal): > 100 µM
- TGI (MDA-MB-231 breast): > 100 µM
- TGI (MALME-3M melanoma): > 100 µM
- TGI (U251 CNS): 83.5 µM
- TGI (MOLT-4 leukemia): 61.1 µM
- TGI (NCI-H226 lung): 69 µM
- TGI (OVCAR-8 ovarian): 55.9 µM
- TGI (TK-10 renal): 65.7 µM
- TGI (LOX IMVI melanoma): > 100 µM
- TGI (BT-549 breast): 73.3 µM
- TGI (RXF 393 renal): > 100 µM
- TGI (COLO 205 colon): > 100 µM
- TGI (DU-145 prostate): > 100 µM
- TGI (CCRF-CEM leukemia): > 100 µM
- TGI (SF-295 CNS): > 100 µM
- TGI (MCF7 breast): > 100 µM
- TGI (UACC-257 melanoma): > 100 µM
- TGI (EKVX NSCLC): > 100 µM
- TGI (HOP-92 NSCLC): > 100 µM
- TGI (UACC-62 melanoma): > 100 µM
- TGI (SK-MEL-2 melanoma): > 100 µM
- TGI (HCT-116 colon): > 100 µM
- TGI (IGROV1 ovarian): 85.4 µM
- TGI (HL-60(TB) leukemia): 41.9 µM
- TGI (NCI-H522 lung): 52.3 µM
- TGI (RPMI-8226 leukemia): 77.4 µM
- TGI (SW-620 colon): 70 µM
- TGI (KM12 colon): 77.6 µM
- TGI (UO-31 renal): 51.4 µM
- TGI (NCI/ADR-RES ovarian): 39.8 µM

From PubChem BioAssay (NCI)
